This note sets out measurements from publication PMC9541843, “N‐terminal alterations turn the gut hormone GLP‐2 into an antagonist with gradual loss of GLP‐2 receptor selectivity towards more GLP‐1 receptor interaction” (British Journal of Pharmacology, 2022).

Peptide text beside a SMILES is read from it. * marks the point of attachment. C16 diacid = O=C(O)CCCCCCCCCCCCCCC(=O)*

For assay [1], the target named is human GLP‐1R (Homo sapiens, UniProt P43220). The assay is described as follows: cAMP accumulation, inhibition of GLP‐1‐mediated response (selectivity). The following applies: for inhibition at 1 µM: COS-7, read-out: Inhibition of GLP‐1‐mediated cAMP response at the human GLP‐1R.
human GLP‐1R, sequence (P43220 24-463): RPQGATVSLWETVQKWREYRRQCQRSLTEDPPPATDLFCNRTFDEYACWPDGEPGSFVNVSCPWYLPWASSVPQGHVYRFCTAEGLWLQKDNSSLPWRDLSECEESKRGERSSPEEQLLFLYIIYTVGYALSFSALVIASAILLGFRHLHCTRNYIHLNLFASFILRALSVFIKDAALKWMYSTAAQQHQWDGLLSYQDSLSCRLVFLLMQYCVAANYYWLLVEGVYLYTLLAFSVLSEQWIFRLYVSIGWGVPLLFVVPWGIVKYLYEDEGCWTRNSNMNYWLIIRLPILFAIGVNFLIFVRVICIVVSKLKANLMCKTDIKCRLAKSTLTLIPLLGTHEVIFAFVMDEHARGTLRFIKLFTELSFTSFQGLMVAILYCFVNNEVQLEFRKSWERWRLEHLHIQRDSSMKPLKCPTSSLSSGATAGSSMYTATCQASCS
Assay [2] has as its target T1, human GLP‐2R (Homo sapiens, UniProt O95838).
T1 sequence (O95838 1-553): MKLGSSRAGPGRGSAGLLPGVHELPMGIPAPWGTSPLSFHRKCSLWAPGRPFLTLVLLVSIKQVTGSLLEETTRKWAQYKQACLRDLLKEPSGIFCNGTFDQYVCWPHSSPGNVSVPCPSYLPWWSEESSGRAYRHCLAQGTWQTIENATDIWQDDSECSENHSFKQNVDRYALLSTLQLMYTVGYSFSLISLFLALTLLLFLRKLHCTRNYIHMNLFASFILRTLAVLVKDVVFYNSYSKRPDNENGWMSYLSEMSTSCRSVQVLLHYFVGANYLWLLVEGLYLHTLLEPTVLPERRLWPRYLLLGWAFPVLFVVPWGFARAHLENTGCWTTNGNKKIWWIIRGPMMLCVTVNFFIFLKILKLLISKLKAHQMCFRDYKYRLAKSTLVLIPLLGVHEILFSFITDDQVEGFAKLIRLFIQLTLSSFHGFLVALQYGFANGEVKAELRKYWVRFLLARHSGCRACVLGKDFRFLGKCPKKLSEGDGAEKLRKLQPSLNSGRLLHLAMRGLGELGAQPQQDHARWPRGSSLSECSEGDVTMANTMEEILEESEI
In words: cAMP accumulation, inhibition of GLP‐2‐induced activation.

The target of assay [3] is T1, human GLP‐2R. The assay is described as follows: cell-based. The following applies: SEM.
Procedure: After incubation, the cells were washed twice in 400 μl per well ice‐cold binding buffer and lysed using 500 μl per well of 200 mM NaOH with 1% SDS for 30 min. The samples were counted using the Wizard Gamma Counter (PerkinElmer, Waltham, MA).
Statistical significance was accepted at P < 0.05.
Assay [4] deals with T1, human GLP‐2R. In words: cAMP accumulation, agonism (HitHunter cAMP assay). The settings on record: COS‐7 cells, human GLP‐2R, 30 min at 37°C, n = 3 in duplicate.

As to `CC[C@H](C)[C@H](NC(=O)[C@H](Cc1ccccc1)NC(=O)[C@H](CC(=O)O)NC(=O)[C@H](CCCNC(=N)N)NC(=O)[C@H](C)NC(=O)[C@H](C)NC(=O)[C@H](CC(C)C)NC(=O)[C@H](CCCCNC(=O)CCCCCCCCCCCCCCC(=O)O)NC(=O)[C@H](CC(=O)O)NC(=O)[C@H](CC(C)C)NC(=O)[C@@H](NC(=O)[C@@H](NC(=O)[C@H](CC(N)=O)NC(=O)[C@H](CCSC)NC(=O)[C@H](CCC(=O)O)NC(=O)[C@H](CC(=O)O)NC(=O)[C@H](CO)NC(=O)[C@H](Cc1ccccc1)NC(=O)[C@H](CO)NC(=O)CNC(=O)[C@@H](N)CC(=O)O)[C@@H](C)O)[C@@H](C)CC)C(=O)N[C@@H](CC(N)=O)C(=O)N[C@@H](Cc1c[nH]c2ccccc12)C(=O)N[C@@H](CC(C)C)C(=O)N[C@H](C(=O)N[C@@H](CCC(N)=O)C(=O)N[C@H](C(=O)N[C@@H](CCCCN)C(=O)N[C@H](C(=O)N[C@H](C(=O)N[C@@H](CC(=O)O)C(=O)O)[C@@H](C)O)[C@@H](C)CC)[C@@H](C)O)[C@@H](C)CC` [GLP‐2(3‐33)[N16K](C16‐diacid/16)] (H-DGSFSDEMNTILDK(C16 diacid)LAARDFINWLIQTKITD-OH), the inhibition at 1 µM in assay [1] turned out to be 72%.
The compound `CC[C@H](C)[C@H](NC(=O)[C@H](Cc1ccccc1)NC(=O)[C@H](CC(=O)O)NC(=O)[C@H](CCCNC(=N)N)NC(=O)[C@H](C)NC(=O)[C@H](C)NC(=O)[C@H](CC(C)C)NC(=O)[C@H](CC(N)=O)NC(=O)[C@H](CC(=O)O)NC(=O)[C@H](CC(C)C)NC(=O)[C@@H](NC(=O)[C@@H](NC(=O)[C@H](CC(N)=O)NC(=O)[C@H](CCSC)NC(=O)[C@H](CCC(=O)O)NC(=O)[C@H](CC(=O)O)NC(=O)[C@H](CO)NC(=O)[C@H](Cc1ccccc1)NC(=O)[C@H](CO)NC(=O)CCCCCCCCCCCCCCC(=O)O)[C@@H](C)O)[C@@H](C)CC)C(=O)N[C@@H](CC(N)=O)C(=O)N[C@@H](Cc1c[nH]c2ccccc12)C(=O)N[C@@H](CC(C)C)C(=O)N[C@H](C(=O)N[C@@H](CCC(N)=O)C(=O)N[C@H](C(=O)N[C@@H](CCCCN)C(=O)N[C@H](C(=O)N[C@H](C(=O)N[C@@H](CC(=O)O)C(=O)O)[C@@H](C)O)[C@@H](C)CC)[C@@H](C)O)[C@@H](C)CC` [GLP‐2(5‐33)(C16‐diacid/5)] ({C16 diacid}-SFSDEMNTILDNLAARDFINWLIQTKITD-OH) gave an IC50 in assay [2] of 12.3 nM. For the same compound, in assay [2] (at 1 μM peptide (highest tested concentration), COS‐7 cells), the “Inhibition of GLP‐2‐induced cAMP at the human GLP‐2R” value is reported as 93%. Besides, in assay [1], the IC50 is 40 nM and the inhibition at 1 µM was 67%.
Take `CC[C@H](C)[C@H](NC(=O)[C@H](Cc1ccccc1)NC(=O)[C@H](CC(=O)O)NC(=O)[C@H](CCCNC(=N)N)NC(=O)[C@H](C)NC(=O)[C@H](C)NC(=O)[C@H](CC(C)C)NC(=O)[C@H](CC(N)=O)NC(=O)[C@H](CC(=O)O)NC(=O)[C@H](CC(C)C)NC(=O)[C@@H](NC(=O)[C@@H](NC(=O)[C@@H](N)CC(N)=O)[C@@H](C)O)[C@@H](C)CC)C(=O)N[C@@H](CC(N)=O)C(=O)N[C@@H](Cc1c[nH]c2ccccc12)C(=O)N[C@@H](CC(C)C)C(=O)N[C@H](C(=O)N[C@@H](CCC(N)=O)C(=O)N[C@H](C(=O)N[C@@H](CCCCN)C(=O)N[C@H](C(=O)N[C@H](C(=O)N[C@@H](CC(=O)O)C(=O)O)[C@@H](C)O)[C@@H](C)CC)[C@@H](C)O)[C@@H](C)CC` [GLP‐2(11‐33)] (H-NTILDNLAARDFINWLIQTKITD-OH): the IC50 in assay [3] was 794 nM. Also, in assay [4] (mean ± SEM), the “cAMP activation Log EC50 ± SEM” value is recorded as “No activation”. In addition, in assay [4], the “cAMP activation EC50” value is “No activation”. For the same compound, in assay [2] (COS‐7 cells, human GLP‐2R, 10 min preincubation with antagonist, then GLP‐2 for 20 min, mean ± SEM, n = 3 in duplicate), the “cAMP inhibition Log IC50 ± SEM” value is recorded as “No inhibition”. Further, in assay [2] (COS‐7 cells, human GLP‐2R, inhibition of GLP‐2‐induced cAMP, n = 3 in duplicate), the “cAMP inhibition IC50” value is on record as “No inhibition”.
